According to patent US9480235B1, “Red lettuces with increased anthocyanins, polyphenols, and oxygen radical absorption capacity” (Rutgers, The State University of New Jersey, priority 2012, dated 2016):

Assays:
Type in all cases: in vivo, C57Bl/6J mice
[1] = test system: diet induced obese hyperglycemic mice; experiment: Experiment 1: fasting blood glucose after single oral NFR-S-4 lettuce; settings: for FBG: mean +/- SD
Procedure: (§1) Five-week-old male C57Bl/6J mice (Jackson Labs) were housed in cages (five mice to a cage) at 25° C. with 12-h light-dark cycle. Mice were given ad libitum access to food and water and after an acclimatization period of one week, rodent diet was switched from chow (Purina, No. 5015) to a very high fat diet (VHFD) containing 60% kcal fat (D12492, Research Diets, New Brunswick, N.J.) for a at least 12 weeks to induce obesity, insulin resistance, and hyperglycemia (Surwit et al., Clin. Exp. Met., 44:645-51, 1995). Weekly food intake per cage and individual body weight measurements were determined throughout the study. All mice were introduced to intragastric feeding prior to treatment. During this time, a gavage administration of 0.2 mL of double distilled water was performed daily for 2-3 days prior to the scheduled experiments.
(§2) For all experiments, mice were randomly divided into fasting blood glucose (FBG)-balanced experimental groups. Lettuce leaves were lyophilized powdered and suspended in 66% labrasol or water for the aqueous extract and Metformin® antidiabetic drug was dissolved in water. Blood glucose levels were measured using an AlphaTrak® handheld glucometer (Abbott Labs Inc., Abbott Park, Ill.) using test strips.
In experiment 1, following a 4 hour fasting period, FBG was measured immediately prior to treatment and 6 hours post treatment. […]
(§3) Statistically significant differences between were analyzed by ANOVA followed by Dunnett's multiple comparisons test and/or paired t-tests (one tail) comparing FBG levels immediately prior to treatment (0 h) and 6 hours after treatment (Table 5). A p-value <0.05 was considered statistically significant.

[2] = test system: diet induced obese hyperglycemic mice; experiment: Experiment 2: oral glucose tolerance test after daily oral NFR-S-4 aqueous extract; settings: positive control 250 mg/kg
Procedure: as §1, §2
(§4) In experiment 2, high fat diet-induced obese mice, animals were given daily oral administration of NFR-S-4 aqueous extract (100 or 300 mg/kg) or vehicle (water) for 28 days (n=10) (Table 6). A Metformin® antidiabetic drug group (250 mg/kg) was included as a positive control for the animal model (n=5). Aqueous extracts were prepared by a 5:1 extraction (solvent volume to fresh weight) in hot (100° C.) acidified water (pH 2 with H2SO4) to assist with anthocyanin stability during the extraction process. Mice were fasted overnight prior to an oral glucose tolerance test. For oral glucose tolerance tests, mice were given an oral glucose challenge (2 g/kg) and blood glucose levels were measured prior to glucose challenge and 30, 60, 90, 120 and 180 minutes after glucose administration (Table 6).
as §3

[3] = test system: diet induced obese hyperglycemic mice; experiment: Experiment 4: oral glucose tolerance test 2 h after oral S-13 lettuce; settings: 300 mg/kg oral 2 h before test
Procedure: as §1, §2, §4
In experiment 4, mice were treated with S-13 lettuce (100 mg/kg), vehicle (66% labrasol), or Metformin® antidiabetic drug (300 mg/kg) by oral administration (n=8-10). After 2 h, mice were given an oral glucose tolerance test as described above (Table 8).
as §3

[4] = test system: diet induced obese hyperglycemic mice; experiment: Experiment 3: fasting blood glucose after single oral S-13 lettuce
Procedure: as §1, §2
In experiment 3, mice were treated using an oral ingestion of vehicle (66% labrasol), S-13 lettuce (100, 300 or 450 mg/kg), green Romaine lettuce (450 mg/kg, commercially available), or Metformin® antidiabetic drug (300 mg/kg) (n=4-5 Following a 4 h fasting period, FBG was measured immediately prior to treatment and 6 h post treatment (Table 7).
as §3

[5] = 6 h post treatment, 300 mg/kg oral

SMILES: CN(C)C(=N)N=C(N)N [Metformin]
- FBG ([1]; 0 h (immediately prior to treatment), 4 h fast, 300 mg/kg oral group): 222 ± 19 mg/dL
- % Decrease in FBG ([1]; 0 h to 6 h, 300 mg/kg oral): 39 +/− 14%
- FBG [1, 5]: 133 ± 25 mg/dL
- FBG, oral glucose tolerance test ([2]; 0 min, glucose 2 g/kg): 181 ± 26 mg/dL
- FBG, oral glucose tolerance test ([2]; 30 min): 298 ± 52 mg/dL
- FBG, oral glucose tolerance test ([2]; 60 min): 244 ± 19 mg/dL
- FBG, oral glucose tolerance test ([2]; 90 min): 247 ± 32 mg/dL
- FBG, oral glucose tolerance test ([2]; 120 min): 249 ± 35 mg/dL
- Area under the curve, oral glucose tolerance test [2]: 30153
- FBG, oral glucose tolerance test ([3]; 0 min, glucose 2 g/kg): 206 ± 45 mg/dL
- Area under the curve, oral glucose tolerance test [3]: 40683
- FBG, oral glucose tolerance test ([3]; 30 min): 261 ± 51 mg/dL
- FBG, oral glucose tolerance test ([3]; 60 min): 263 ± 69 mg/dL
- FBG, oral glucose tolerance test ([3]; 90 min): 257 ± 62 mg/dL
- FBG, oral glucose tolerance test ([3]; 120 min): 196 ± 31 mg/dL
- FBG, oral glucose tolerance test ([3]; 180 min): 176 ± 30 mg/dL
- FBG ([4]; 0 (immediately prior to treatment), 4 h fast, 300 mg/kg oral group, mean +/- SD): 214 ± 20 mg/dL
- % Decrease in FBG ([4]; 0 to 6 h, 300 mg/kg oral): 31 +/− 19%
- FBG [4, 5]: 146 ± 34 mg/dL
